Results as given in patent US5138101A, “Recovery of high-boiling aldehydes from rhodium-catalyzed hydroformylation processes” (Eastman Kodak Company, priority 1991, dated 1992).
Read-outs that look alike come from different tables or passages of the source.

Experiments:
[1] = Extraction and back-extraction with p-diisopropylbenzene or 1,7-octadiene: rhodium concentration in both phases, composition of extraction solution; assay type: physicochemical
Protocol: Examples […] illustrate yet another embodiment of the process of the present invention wherein extraction solution containing dissolved rhodium is back-extracted with either hydroformylation solvent or olefinic feedstock to reduce the concentration of rhodium in the extraction solution.
The general procedure described in Examples 31-48 was used to extract 60.5 mL of hydroformylation product solution obtained by the hydroformylation of 1,7 octadiene in the presence of a catalyst system comprising rhodium and BISBI phosphine (Reference Example 9). […] The extraction flask was charged with the hydroformylation product solution, 37 mL methanol, 12 mL water and […] [Na] provided as sodium oleate.
For Example 88, the extraction mixture was stirred at room temperature for 30 minutes and then drained into a calibrated, addition funnel and allowed to stand for about five minutes to permit phase separation. The volume of the hydroformylation product solution (organic) phase was 45 mL and the volume of the extraction solution phase was 65 ml. Samples of each phase were taken for rhodium and product composition analyses.
For Example 89, the extraction solution phase separated in Example 88 was added to a clean 250 mL flask along with 30 mL of p-diisopropylbenzene and the mixture was stirred at 50° C. for 30 minutes, was allowed to stand at 50° C. for about 5 minutes to permit phase separation and then each phase was separated and analyzed for composition and rhodium concentration.
For Example 90, the extraction solution separated in Example 89 was added to a clean 250 mL flask along with another 30 mL of p-diisopropylbenzene hydroformylation solvent. The mixture was agitated at 50° C. for thirty minutes, allowed to stand at 50° C. for 5 minutes to permit phase separation and each phase was analyzed for composition and rhodium concentration.
This scheme would be useful in a counter-current extraction method for recycling recovered hydroformylation product solution as well as in using the olefinic feed to the reactor as a back extraction solvent for recovering soluble rhodium from the methanol/water extract.
Example 91 was carried out using the procedure described in Examples 88. The flask was charged with 62 mL of a hydroformylation product solution (Reference Example 10) having a rhodium concentration 166 mg/L and containing 3.01 g of C9-enal, 12.69 g of C10-dial and 37.84 grams of p-diisopropylbenzene. Methanol (37 ml), water (16 ml) and 78 mg Na (as sodium 2-ethylhexanoate) were added to the flask. This mixture was stirred at 50° C. for 30 minutes and then allowed to stand for 5 minutes at 50° C. to permit phase separation. The hydroformylation product solution (organic) phase and the extraction solution phase were both sampled and analyzed for rhodium concentration. The 2 phases were drained into a clean, graduated addition funnel and the volumes of the two phases were measured. The volume of the organic layer was 43 mL and the extraction solution layer was 62 mL.
For Example 92, the extraction solution phase produced in Example 91 was added to a clean, 250 mL flask along with 30 mL of p-diisopropylbenzene and the mixture was stirred at 50° C. for 30 minutes and then allowed to separate into two phases. The two phases were analyzed for rhodium concentration and composition. The mixture was drained into a clean addition funnel to separate the two phases. For Example 93, the extraction solution phase of Example 92 and 30 mL of 1,7-octadiene were added to a clean, 250 mL flask. This mixture was stirred at 50° C. for 30 minutes and then allowed to separate into two phases which were analyzed for rhodium concentration.
The amounts (g) of C9-enal, C10-dial in the sample of hydroformylation product solution initially extracted and in the methanol/water extraction solutions resulting from Examples 91, 92 and 93 are given in Table XIII. The ratio given in Table XIII is the weight ratio of C10-dial:C9-enal. […]

[2] = cited from earlier work
[3] = Example 88, initial extraction, sodium oleate
[4] = Example 89, first back-extraction, p-diisopropylbenzene, 50° C.
[5] = Example 90, second back-extraction, p-diisopropylbenzene, 50° C.
[6] = Example 91, initial extraction, sodium 2-ethylhexanoate, 50° C.
[7] = Example 92, back-extraction, p-diisopropylbenzene, 50° C.
[8] = Example 94, initial extraction, no salt, 25° C.
[9] = Example 95, back-extraction, p-diisopropylbenzene, 50° C.

## [Rh] [Rh, rhodium]
[1]; [3]
  Rhodium Concentration, Extraction Solution Phase: 5.2 mg Rh per liter
  Rhodium Concentration, Organic Phase: 235 mg Rh per liter
[1]; [4]
  Rhodium Concentration, Extraction Solution Phase: 1.6 mg Rh per liter
  Rhodium Concentration, Organic Phase: 7.2 mg Rh per liter
[1]; [5]
  Rhodium Concentration, Extraction Solution Phase: 1.0 mg Rh per liter
  Rhodium Concentration, Organic Phase: 1.2 mg Rh per liter
[1]; [6]
  Rhodium Concentration, Extraction Solution Phase: 6.2 mg Rh per liter
  Rhodium Concentration, Organic Phase: 216 mg Rh per liter
[1]; [7]
  Rhodium Concentration, Extraction Solution Phase: 1.0 mg Rh per liter
  Rhodium Concentration, Organic Phase: 7.0 mg Rh per liter
[1]; Example 93, back-extraction, 1,7-octadiene, 50° C.
  Rhodium Concentration, Organic Phase: < 1 mg Rh per liter
[1]; Example 93, back-extraction, 1,7-octadiene, 50° C., listed as Rhodium
  Rhodium Concentration, Extraction Solution Phase: < 1 mg Rh per liter
[1]; Example 93, back-extraction, 1,7-octadiene, 50° C., listed as rhodium
  Rhodium Concentration, Extraction Solution Phase: below detection limits
[1]; [8]
  Rhodium Concentration, Extraction Solution Phase: 37 mg Rh per liter
  Rhodium Concentration, Organic Phase: 195 mg Rh per liter
[1]; [9]
  Rhodium Concentration, Extraction Solution Phase: 33 mg Rh per liter
  Rhodium Concentration, Organic Phase: 24 mg Rh per liter
[2]; 4-hydroxybutyraldehyde 38 percent by weight, U.S. Pat. No. 4,678,857
  Rhodium extracted into the aqueous phase: 5 mg of rhodium per liter
[2]; aqueous 2-N,N-dimethylaminoethanol, U.S. Pat. No. 4,292,196
  Rhodium extracted into the aqueous phase: 70%
